Data from patent publication US20060264460A1 (Wyeth, priority 2005, published 2006).
pIC50: −log10 of the molar value.

Each compound was assayed against T1, human Cot/Tpl2 kinase (Homo sapiens, UniProt P41279) (assay: Tpl2/Cot kinase assay: GST-MEK1 phosphorylation detected by ELISA (DELFIA Eu)). Details: Tpl2/Cot kinase, GST-MEK1 substrate, 50 uM ATP.
T1 construct: human Cot/Tpl2 kinase construct encoding residues 30-398; 6His (N); made in house; host or cells: Sf9 insect cells, baculovirus system (BD Biosciences)
T1 sequence (P41279 30-398): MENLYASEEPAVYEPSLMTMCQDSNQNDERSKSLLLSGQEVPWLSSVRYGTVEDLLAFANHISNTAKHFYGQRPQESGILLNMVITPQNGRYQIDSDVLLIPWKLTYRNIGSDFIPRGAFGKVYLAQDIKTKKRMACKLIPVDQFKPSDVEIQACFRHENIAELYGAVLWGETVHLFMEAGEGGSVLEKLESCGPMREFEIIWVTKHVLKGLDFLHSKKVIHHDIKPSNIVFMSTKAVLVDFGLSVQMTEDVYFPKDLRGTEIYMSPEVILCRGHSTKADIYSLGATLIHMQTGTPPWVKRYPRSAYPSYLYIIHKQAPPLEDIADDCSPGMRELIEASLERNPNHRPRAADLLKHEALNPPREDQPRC
Assay type: biochemical
In short: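 His-tagged human Tpl2 from Sf9 cells, Ni-affinity and size-exclusion purified (monomer). 0.4 nM Tpl2 with 35 nM GST-MEK1, 50 uM ATP, MOPS pH 7.2, 1% DMSO, 1 h at 30° C; EDTA stop. MEK1 Ser217/221 phosphorylation detected by anti-phospho-MEK1 and Eu-labelled secondary ELISA; IC50 fitted.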

pIC50 | Compound
6.85 | N#Cc1cnc2c(Br)cc(NCc3cn(CCOCCOCCO)nn3)cc2c1Nc1ccc(F)c(Cl)c1 [Example 741]
6.49 | N#Cc1cnc2c(Cl)cc(NCc3cn(-c4ccnc(N5CCCCC5)n4)nn3)cc2c1Nc1ccc(F)c(Cl)c1 [Example 747]
7.82 | N#Cc1cnc2c(Br)cc(NCc3cn(-c4cc[n+]([O-])cc4)nn3)cc2c1Nc1ccc(F)c(Cl)c1 [Example 748]
7.80 | CN(C)C(=O)OCCCn1cc(CNc2cc(Cl)c3ncc(C#N)c(Nc4ccc(F)c(Cl)c4)c3c2)nn1 [Example 750]
< 5.52 | N#Cc1cnc2c(Cl)cc(NCc3cn(Cc4ccc(C(F)(F)F)cc4)nn3)cc2c1Nc1ccc(F)c(Cl)c1 [Example 756]
8.17 | CN(C)CCC(c1cccnc1)n1cc(CNc2cc(Br)c3ncc(C#N)c(Nc4ccc(F)c(Cl)c4)c3c2)nn1 (centres unmarked) [Example 757]
7.44 | CN(C)CCC(c1cccnc1)n1cc(CNc2cc(Cl)c3ncc(C#N)c(Nc4ccc(F)c(Cl)c4)c3c2)nn1 (centres unmarked) [Example 759]
< 5.52 | COC(=O)c1cc(Cl)c2ncc(C#N)c(Nc3ccc(F)c(Cl)c3)c2c1 [Example 760]
6.28 | CC(C)(C)OC(=O)N1CCCN(CCCn2cc(CNc3cc(Br)c4ncc(C#N)c(Nc5ccc(F)c(Cl)c5)c4c3)nn2)CC1 [Example 762]
6.92 | CC(C)(C)OC(=O)N1CCCN(CCCn2cc(CNc3cc(Cl)c4ncc(C#N)c(Nc5ccc(F)c(Cl)c5)c4c3)nn2)CC1 [Example 763]
7.13 | N#Cc1cnc2c(Cl)cc(NCc3cn(CCCN4CCCNCC4)nn3)cc2c1Nc1ccc(F)c(Cl)c1 [Example 767]
6.80 | N#Cc1cnc2c(Cl)cc(NCc3cn(CCCN4CCNCC4)nn3)cc2c1Nc1ccc(F)c(Cl)c1 [Example 769]

The remaining lines, values behind:

Compound | pIC50
CN(C)CC(c1ccccc1)n1cc(CNc2cc(Cl)c3ncc(C#N)c(Nc4ccc(F)c(Cl)c4)c3c2)nn1 (centres unmarked) [Example 740] | 7.15
N#Cc1cnc2c(Cl)cc(NCc3cn(CCOCCOCCO)nn3)cc2c1Nc1ccc(F)c(Cl)c1 [Example 742] | 7.04
COCCOCCn1cc(CNc2cc(Br)c3ncc(C#N)c(Nc4ccc(F)c(Cl)c4)c3c2)nn1 [Example 743] | 7.00
COCCOCCn1cc(CNc2cc(Cl)c3ncc(C#N)c(Nc4ccc(F)c(Cl)c4)c3c2)nn1 [Example 744] | 7.68
CN(C)CCc1nc[nH]c1CNc1cc(Br)c2ncc(C#N)c(Nc3ccc(F)c(Cl)c3)c2c1 [Example 745] | 6.62
N#Cc1cnc2c(Cl)cc(NCc3cn(CCc4ccccn4)nn3)cc2c1Nc1ccc(F)c(Cl)c1 [Example 746] | 7.60
N#Cc1cnc2c(Cl)cc(NCc3cn(-c4cc[n+]([O-])cc4)nn3)cc2c1Nc1ccc(F)c(Cl)c1 [Example 749] | 7.80
N#Cc1cnc2c(Cl)cc(NCc3cn(CCCO)nn3)cc2c1Nc1ccc(F)c(Cl)c1 [Example 751] | 8.44
CN(C)C(=O)OCCCn1cc(CNc2cc(Br)c3ncc(C#N)c(Nc4ccc(F)c(Cl)c4)c3c2)nn1 [Example 752] | 8.46
N#Cc1cnc2c(Br)cc(NCc3cn(Cc4ccccn4)nn3)cc2c1Nc1ccc(F)c(Cl)c1 [Example 753] | 7.48
N#Cc1cnc2c(Cl)cc(NCc3cn(CC4CCCCC4)nn3)cc2c1Nc1ccc(F)c(Cl)c1 [Example 755] | 6.10
CC(c1ccccc1)n1cc(CNc2cc(Cl)c3ncc(C#N)c(Nc4ccc(F)c(Cl)c4)c3c2)nn1 (centres unmarked) [Example 761] | 7.02
CC(C)(C)OC(=O)N1CCN(CCCn2cc(CNc3cc(Br)c4ncc(C#N)c(Nc5ccc(F)c(Cl)c5)c4c3)nn2)CC1 [Example 764] | 5.89
CC(C)(C)OC(=O)N1CCN(CCCn2cc(CNc3cc(Cl)c4ncc(C#N)c(Nc5ccc(F)c(Cl)c5)c4c3)nn2)CC1 [Example 765] | 6.64
N#Cc1cnc2c(Br)cc(NCc3cn(CCCN4CCCNCC4)nn3)cc2c1Nc1ccc(F)c(Cl)c1 [Example 766] | 7.37
N#Cc1cnc2c(Br)cc(NCc3cn(CCCN4CCNCC4)nn3)cc2c1Nc1ccc(F)c(Cl)c1 [Example 768] | 6.96
N#Cc1cnc2c(Cl)cc(C(=O)O)cc2c1Nc1ccc(F)c(Cl)c1 [Example 770] | 5.62
